Results from US7968556B2, “Heteroaryl compounds, compositions thereof, and methods of treatment therewith” (Signal Pharmaceuticals, LLC, priority 2006, dated 2011).

Columns and labels:
mTOR = mTOR (Homo sapiens, UniProt P42345); test: mTOR HTR-FRET Assay; type: biochemical
Method: The following is an example of an assay that can be used to determine the mTOR inhibitory activity of a test compound. Reagents are prepared as follows:
“Simple TOR buffer” (used to dilute high glycerol TOR fraction): 10 mM Tris pH 7.4, 10 mM NaCl, 0.1% Tween-20, 1 mM DTT (from 1M stock frozen at −20° C. just prior to use). For convenience a large quantity of “Simple TOR buffer” w/o DTT can be stored at 4° C. It can be brought to room temperature and DTT added just prior to dilution of TOR fraction.
5XKB/5XMn/5×ATP solution (used to dilute substrate GST-p70S6kin 81 a.a. just prior to use) (40 ml screen quantity shown):
Enzyme solution: Dilute TOR fraction 1:14 in “Simple TOR Buffer”. For current lot that is 640 μg/ml TOR fraction diluted 14× to yield 45.7 μg/ml TOR in buffer (i.e. 7.85 ml TOR pooled fraction+102.1 ml Simple TOR buffer=110 ml 14× diluted TOR fraction). Each Enzyme Lot must be QC'd prior to assay.
Substrate solution: This may be prepared just prior to assay if preferred. Dilute 5.3 mg/ml GST-p70S6kinase fragment stock to 3.5 μg/ml (97 nM) working stock in 5XKB/5XMn/5×ATP solution (i.e. 26.41 μL (5.3 mg/ml) GST-p70S6+40 ml 5XKB/5XMn/5×ATP=40 ml 3.5 μg/ml (97 nM)).
Assay Buffer (for dilution of Antibodies used in Antibody Detection Reagent):
Antibody Detection Reagent (this reagent should be made just prior to addition to Assay Plates):
Using PlateTrak program (Screen) or Matrix Pipettor (SAR), 19.5 μL of diluted TOR fraction is added to assay plate in all test, reference or positive control wells. 19.5 μL of “Simple TOR buffer” is added to all negative control wells. If treating multiple plates with the same compounds, can increase volume of enzyme to multiples of 19.5 μL in a tall 384 well polypropylene plate.
Using EP3, 0.5 μl of test, reference or control DMSO is added to each well with mixing. Plates are incubated for 30 minutes at room temperature.
Using PlateTrak program (Screen) or Matrix Pipettor (SAR) 5 μL of 5XKB/5XMn/5×ATP/5× substrate solution is added to each well of the assay plate to start the reaction. The solutions are mixed well and incubated for 2 hours at room temperature.
Using PlateTrak program (Screen) or Matrix Pipettor (SAR) 5 μL of 60 mM EDTA is added to stop the reaction. The solutions are mixed well and allowed to sit for 15-20 minutes before the next step.
Using PlateTrak program (Screen) or Matrix Pipettor (SAR) 10 μl of Antibody Detection Reagent is added. The solutions are mixes well and incubated for 5 hours to O/N to allow antibodies to form complexes with phosphorylated substrate.
Plates are read on AnalystHT using protocol Multi-Method protocol.

IKK-2 = target: T1, IKK-2 (Homo sapiens, UniProt O14920, S177E/S181E); test: IKK-2 screening assay (IKK2EE 33P Assay / IKK2EE NEMO HTRF Assay); type: biochemical
T1 sequence (O14920 1-756 S177E/S181E): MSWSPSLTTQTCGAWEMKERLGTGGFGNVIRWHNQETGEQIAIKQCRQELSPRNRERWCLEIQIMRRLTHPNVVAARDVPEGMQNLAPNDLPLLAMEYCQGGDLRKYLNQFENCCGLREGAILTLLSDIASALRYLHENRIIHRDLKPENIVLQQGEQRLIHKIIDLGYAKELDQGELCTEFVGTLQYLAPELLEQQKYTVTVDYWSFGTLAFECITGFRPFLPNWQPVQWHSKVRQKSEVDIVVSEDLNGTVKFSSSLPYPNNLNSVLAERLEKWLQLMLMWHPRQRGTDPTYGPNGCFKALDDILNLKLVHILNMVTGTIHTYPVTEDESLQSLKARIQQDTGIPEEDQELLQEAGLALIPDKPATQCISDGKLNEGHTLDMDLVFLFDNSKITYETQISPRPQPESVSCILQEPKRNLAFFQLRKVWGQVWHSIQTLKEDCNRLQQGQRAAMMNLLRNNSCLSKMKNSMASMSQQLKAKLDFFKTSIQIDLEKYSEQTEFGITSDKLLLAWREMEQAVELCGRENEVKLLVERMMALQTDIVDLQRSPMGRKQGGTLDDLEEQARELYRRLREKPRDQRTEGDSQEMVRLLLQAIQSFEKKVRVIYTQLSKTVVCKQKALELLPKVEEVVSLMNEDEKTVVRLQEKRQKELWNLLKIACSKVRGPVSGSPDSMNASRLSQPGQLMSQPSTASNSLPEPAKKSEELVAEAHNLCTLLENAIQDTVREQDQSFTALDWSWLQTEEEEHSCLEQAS
Method: The following is an example of an assay that can be used to determine the IKK2EE inhibitory activity of a test compound.
A reaction buffer (pH 7.8) is prepared containing HEPES (20 mM), MgCl2 (10 mM), EDTA (0.1 mM), DTT (1 mM) and Triton X-100 (0.004%). IKK2EE (0.75 μg/ml is used. GST-IKBα (50 μg/ml) is used as substrate. Adenosine 5′-triphosphate (1.5 μM with ^33P-ATP 5 nCi/μl) is used. Reactions are stopped with trichloroacetic acid (6.25%).
Appropriate amounts of test compounds or controls in 100% DMSO are added to the assay plate. A peptide-substrate solution (PSS) is prepared by adding peptide stock to an appropriate volume of buffer (peptide concentration in the PSS will be about 100 μg/ml). An enzyme-peptide solution (EPS) is prepared by adding enzyme stock to an appropriate volume of PSS (the enzyme concentration in the EPS will be about 1 μg/ml). An ATP solution is prepared by adding ATP stock to an appropriate volume of buffer (the ATP concentration will be 15 μM).
85 μl of EPS is added to the assay wells (or PSS to positive control wells) of 96 well polypropylene plates. The ATP solution is then completed by adding ^33P-ATP (to a final concentration of 50 μCi/ml).
The reaction is initiated by adding 10 μl ATP solution to each well. Plates are shaken from about 12 seconds and allowed to incubate at room temperature for 1 hours. 100 μl of trichloroacetic acid solution (12.5%) is added to stop the reaction and the plates are incubated at room temperature for at least 10 minutes. The assay plates are harvested onto a Millipore Multiscreen harvest Plate FC using an appropriate harvester and the harvest plates are washed with 1×PBS solution for about 10 seconds (continuous flow). Harvest plates are allowed to dry thoroughly and the bottoms of the plates are sealed. 20-50 μl of Microscint20 is added to each well, tops are sealed and plates are read using an appropriate scintillation counter.
A reaction buffer (pH 7.6) is prepared containing HEPES (20 mM), MgCl2 (10 mM), EDTA (0.05 mM), DTT (1 mM) and Triton X-100 (0.004%). IKK2EE-NEMO (0.7 μg/ml is used. GST-IKBα (0.5 μg/ml) is used as substrate. Adenosine 5′-triphosphate (1.5 μM) is used. Detection reagents used are mouse anti-P-IKBα (30 ng/ml), Eu anti-mouse (300 ng/ml) and Cy5 anti-GST (11.5 μg/ml). Reactions are stopped with EDTA (20 mM).
An enzyme solution (ES) is prepared by adding enzyme stock to an appropriate volume of buffer (enzyme concentration in the ES will be about 1.7 ng/ml). A detection mixture (DM) is prepared by adding ATP (final conc. 3.75 μM), mouse anti-P-IKBα (final conc. 75 ng/ml), GST-IKBα (final conc. 1.26 μg/ml), Eu anti-mouse in buffer (final conc. 750 ng/ml).
5 μl of compound (solvated in 10% DMSO) is added to assay wells (or 10% DMSO to control wells) of low binding reaction plates. […] ES is added to assay wells (or buffer to control wells) and the reaction is initiated by adding 10 μl DM to all wells. Plates are incubated at room temperature for 45 minutes. Stop mixture is prepared by adding EDTA (final conc. 70 mM) and Cy5 anti-GST (final conc. 40 μg/ml) to an appropriate volume of buffer. Stop mixture is added and plates are shaken for 20 seconds and incubated at room temperature for at least 3 hours (preferably in the dark). Plates are read on an Analyst HT using Multi-Method HTRF.

Compound	IC50 (mTOR) [µM]	IC50 (IKK-2) [µM]	melting point [°C]
NC(=O)c1nc(-c2cccnc2)nc2c1NC(=O)CN2c1ccccc1 [Compound 36, 6-oxo-8-phenyl-2-(pyridin-3-yl)-5,6,7,8-tetrahydropteridine-4-carboxamide]	> 30	> 30	294 to 296
CNC(=O)c1nc(-c2cccnc2)nc2c1[nH]c(=O)n2-c1ccccc1 [Compound 2, N-methyl-8-oxo-9-phenyl-2-(pyridin-3-yl)-8,9-dihydro-7H-purine-6-carboxamide]	> 30	> 30	> 330
CN(C)C(=O)c1nc(-c2cccnc2)nc2c1[nH]c(=O)n2-c1ccccc1 [Compound 6, N,N-dimethyl-8-oxo-9-phenyl-2-(pyridin-3-yl)-8,9-dihydro-7H-purine-6-carboxamide]	> 30	> 30	250 to 252
COc1ccccc1-n1c(=O)[nH]c2c(C(N)=O)nc(-c3cccc4[nH]ccc34)nc21 [Compound 10, 2-(1H-indol-4-yl)-9-(2-methoxyphenyl)-8-oxo-8,9-dihydro-7H-purine-6-carboxamide]	5.1 to 10	> 30	312 to 313
NC(=O)c1nc(-c2cccnc2)nc2c1ncn2-c1ccccc1 [Compound 35, 9-phenyl-2-(pyridin-3-yl)-9H-purine-6-carboxamide]	20.1 to 30	5.1 to 10	298 to 299
N#Cc1cccc(-c2nc(C(N)=O)c3[nH]c(=O)n(-c4ccccc4)c3n2)c1 [Compound 27, 2-(3-cyanophenyl)-8-oxo-9-phenyl-8,9-dihydro-7H-purine-6-carboxamide]	10.1 to 20	> 30	328 to 330
NC(=O)c1nc(-c2cccc(O)c2)nc2c1[nH]c(=O)n2-c1ccccc1Cl [Compound 14, 9-(2-chlorophenyl)-2-(3-hydroxyphenyl)-8-oxo-8,9-dihydro-7H-purine-6-carboxamide]	0.1 to 5	> 30	360 to 364
NC(=O)c1nc(-c2cccnc2Cl)nc2c1[nH]c(=O)n2-c1ccccc1 [Compound 4, 2-(2-chloropyridin-3-yl)-8-oxo-9-phenyl-8,9-dihydro-7H-purine-6-carboxamide]	> 30	> 30	283 to 286
